Tests used:
[1] = biological target: neuraminidase (NA) of A(H3N2) of 2018–19 (Influenza A virus (H3N2), UniProt A0A193ACB1); type: biochemical; settings: n = 170; read-out: Median IC50 + SD
[2] = test system: influenza A(H3N2) viruses isolated in the 2018–19 season in Japan; test: microbe, parasite or virus in culture; type: cell-based; settings: n = 83, read-out: Median IC50 + SD

| SMILES | IC50 [1] [pM] | IC50 [2] [pM] |
| --- | --- | --- |
| CCC(CC)[C@H](NC(C)=O)[C@@H]1[C@H](O)[C@@H](C(=O)O)C[C@H]1N=C(N)N [Peramivir, peramivir] | 130 |  |

From PMC6810216, “Human-to-Human Transmission of Influenza A(H3N2) Virus with Reduced Susceptibility to Baloxavir, Japan, February 2019” (Emerging Infectious Diseases, 2019)
